According to patent US20060142395A1, “Modulation of intracellular calcium signaling by N-acylethanolamines” (University of North Texas Health Science Center, priority 2003, published 2006):
Like-named read-outs stand apart in the source and are kept apart here. One block for each compound: values may come before it.

Tests used:
type 2 RyR = molecular target: T1, type 2 RyR (Mus musculus, UniProt E9Q401); test: Planar lipid bilayer single channel recording of RyR2; type: biochemical
T1 construct: First, type 2 RyR were isolated from mouse; from tissue; host or cells: mouse
Method: NAEs differentially regulate the activity of ICCs. First, type 2 RyR were isolated from mouse. Briefly, single channel activity was examined using the Planar Lipid Bilayer Membrane technique. […] Channel activity was initiated by cytosolic Ca^2+ concentrations of 10 nM and higher.
(§1) Next, the effect of NAE 12:0 on mouse RyRs was determined. NAE 12:0 dose-dependently and isoform-specifically regulated the function of RyRs and represent the first pharmacological tool to differentially manipulate individual intracellular calcium channel isoforms (FIG. 5). […] Measured at sub-maximally activating Ca^2+ concentrations (RyR type I: pCa 6; RyR type II: pCa 6.5) 500 nM NAE 12:0 increased RyR type I activity by 42% whereas the same concentration decreased RyR type II activity by 64% (FIG. 5).
Planar lipid bilayer single channel electrophysiology. ER vesicles or artificial liposomes containing ICCs may be incorporated into planar lipid bilayers and channel activity may be recorded electrophysiologically with the planar lipid bilayer being equivalent to the plasma membrane patch of patch clamp electrophysiology. Lipid bilayer membranes may be formed in a hole in a Teflon partition, which separates two buffer filled compartments (phosphatidylethanolamine and phosphatidylserine, 3:1 w/w, dissolved in decane, 40 mg lipid per ml, Avanti Polar Lipids, Alabaster, Ala.). Vesicles containing pc-2 may be added to one compartment (corresponding to the cytosolic compartment) and fuse with the bilayer leaving the channels contained in the vesicle as the only electrical connection between the two compartments. The buffer on the cytosolic side of the channel is a 250 mM HEPES-Tris solution, pH 7.35 and a 250 mM HEPES, 55 mM Ba(OH)2 (or defined concentration of other current carrier, such as Ca(OH)2 or Mg(OH)2) solution, pH 7.35 constitutes the buffer on the trans side of the bilayer. Proper insertion of the ICCs may be monitored by appropriate stimulation of channels on the cytosolic side (IP3R: Ca^2+, IP3; RyR: Ca^2+, caffeine, cADPR; pc-2: Ca^2+, activating membrane potential; 77, 83, 115-117, 141). Improperly inserted channels that are less than 5% under the described conditions will not be included in the analysis. Channel insertion and activity may be recorded with Ag/AgCl electrodes contacting the buffer filled compartments via KCl containing agarose bridges. Activity of a single channel protein can be monitored because it passes enough current to be measured electronically using an amplifier. Altering the divalent cation species on the luminal side of the channel that carries the current will test ion selectivity. Single channel conductance, voltage-dependence, dwell times and dependence on intracellular free Ca^2+ concentrations may be determined using standard methods in the presence of blockers of other ICCs (IP3R: no IP3, heparin; RyR: ryanodine, ruthenium red; pc-2: lack of activating membrane potential; 77, 83). Modulating reagents may be added to the cytosolic side of the protein using a perfusion system (77, 83).

RyR type I = molecular target: T2, RyR type I (Mus musculus, UniProt E9PZQ0); test: Planar lipid bilayer single channel recording of RyR type I; type: biochemical
T2 construct: from tissue; host or cells: mouse
Method: as §1
Planar lipid bilayer single channel electrophysiology. ER vesicles or artificial liposomes containing ICCs may be incorporated into planar lipid bilayers and channel activity may be recorded electrophysiologically with the planar lipid bilayer being equivalent to the plasma membrane patch of patch clamp electrophysiology. […] Proper insertion of the ICCs may be monitored by appropriate stimulation of channels on the cytosolic side (IP3R: Ca^2+, IP3; RyR: Ca^2+, caffeine, cADPR; pc-2: Ca^2+, activating membrane potential; 77, 83, 115-117, 141). […] Channel insertion and activity may be recorded with Ag/AgCl electrodes contacting the buffer filled compartments via KCl containing agarose bridges. Activity of a single channel protein can be monitored because it passes enough current to be measured electronically using an amplifier. […]

HT22 neurons = test: Neuroprotection from L-glutamate toxicity (oxidative stress); type: cell-based
Method: NAE protects neurons in vitro from oxidative stress and glutamate toxicity. Next, the neuroprotective potential effects of NAEs were determined by culturing an immortalized hippocampal neuron cell line, HT 22, a model system used extensively. […] The mechanism of neurotoxicity is depletion of intracellular glutathione stores by inhibition of the cysteine transport and subsequently of glutathione synthesis.
The following assays may be used to assess neuronal viability and different stages of cell death. Optical assessment._Changes in cell morphology (apoptotic and necrotic morphology) and cell number may be used as an initial assessment of neurotoxicity and neuroprotection (see preliminary results in FIG. 8) using bright field differential interference contrast microscopy (Olympus IX-70, Olympus Corp., Japan; SimplePCI, C-imaging systems, Compix, Inc.).

[1] = molecular target: T3, type 2 IP3R from nuclei of HepG2 cells (Homo sapiens, UniProt Q14571); test: Planar lipid bilayer single channel recording of native type 2 IP3R; type: biochemical
T3 construct: biophysical properties of native type 2 IP3R isolated from cells; endogenous in cells; host or cells: HepG2 cells, nuclei / nuclear envelope membranes
Text: Electrophysiological recording of ICCs is a well established technique used to measure the effects on calcium levels based on external stimuli (83, 115-117). The planar lipid bilayer technique has been used by the principal investigator to determine the function of ICCs in neurons and non-neuronal cells. The inventors isolated type 2 IP3R from nuclei of HepG2 cells using the same techniques described herein. These studies represent the first determination of the biophysical properties of native type 2 IP3R isolated from cells. All previous studies on type 2 IP3R used artificially expressed type 2 IP3R of cells that had been transfected with the respective cDNA (118-119). Single channel activity was examined using the Planar Lipid Bilayer Membrane technique. […] The lack of feedback inhibition by high concentrations of Ca^2+ is again similar to what has been observed in the recombinant type 2 IP3R (118, 121). […] Both the increased sensitivity to IP3 and the lack of Ca2+-induced inactivation distinguishes the type 2 IP3R from the well-characterized type 1 IP3R. By isolating the receptor with its associated proteins from a functional cellular environment, properties influenced by accessory proteins can be readily assessed with single channel electrophysiology. Data obtained from these experiments analyzing the single channel characteristics of ICCs will provide the biophysical information necessary to correlate intracellular signaling data with function in live cells and in vivo, as shown hereinbelow.
Planar lipid bilayer single channel electrophysiology. ER vesicles or artificial liposomes containing ICCs may be incorporated into planar lipid bilayers and channel activity may be recorded electrophysiologically with the planar lipid bilayer being equivalent to the plasma membrane patch of patch clamp electrophysiology. […] Proper insertion of the ICCs may be monitored by appropriate stimulation of channels on the cytosolic side (IP3R: Ca^2+, IP3; RyR: Ca^2+, caffeine, cADPR; pc-2: Ca^2+, activating membrane potential; 77, 83, 115-117, 141). […] Channel insertion and activity may be recorded with Ag/AgCl electrodes contacting the buffer filled compartments via KCl containing agarose bridges. Activity of a single channel protein can be monitored because it passes enough current to be measured electronically using an amplifier. […] Single channel conductance, voltage-dependence, dwell times and dependence on intracellular free Ca^2+ concentrations may be determined using standard methods in the presence of blockers of other ICCs (IP3R: no IP3, heparin; RyR: ryanodine, ruthenium red; pc-2: lack of activating membrane potential; 77, 83). […]

type 1 IP3R = type 1 IP3R (Homo sapiens, UniProt Q14643); details: read-out: half maximal activation by IP3; cited from earlier work
recombinant type 2 IP3R = recombinant type 2 IP3R (Homo sapiens, UniProt Q14571); details: read-out: EC50-value for IP3; cited from earlier work
rats and mice = details: transient ischemia with reperfusion and permanent occlusion; cited from earlier work
IP3R = test: Western blot of phosphothreonine on IP3R in retina tissue in vitro; type: cell-based, mouse; details: 100 nM, 60 min, vs vehicle control
Text: Chemo-luminescence-enhanced Western blotting as a sensitive method to evaluate changes in intracellular signaling. A crucial factor in the determination of signaling proteins mediating neuroprotection is the specificity of reagents used for immunolocalization. As disclosed herein, a number of antibodies identified and characterized (Tables 1 and 2) and the conditions that allow full identification of signaling proteins mediating NAE responses through NAEs in neurons provided. Using the sensitive chemo-luminescence-enhanced Western blotting technique, changes were detected in signaling protein composition. Furthermore, immunodetection methods allow an analysis of the changes in the phosphorylation status of signaling proteins in experiments assessing the neuroprotective functions of NAEs. The high temporal and quantitative sensitivity of the assay system may be especially useful in our in vitro and in vivo model systems of neurotoxicity which will measure small but functionally relevant initial changes associated with neuronal damage. In additional studies, the effects of lipophilic hormones on the phosphorylation status of intracellular calcium channels was determined. […]
The high temporal and quantitative sensitivity of the assay system may be especially useful in our model systems which will produce functionally relevant initial changes associated with neuronal damage.

[2] = tested on: primary cultures of hippocampal neurons; test: Ca2+ imaging of L-glutamate induced Ca2+ transients (fluo-3); type: cell-based; details: 100 μM, 30 min preincubation, 100 μM L-Glutamate stimulus
Method: Both single wavelength (high sensitivity) and ratiometric (quantitative analysis) fluorescent Ca^2+ indicator dyes may be used. Various parameters may be studies, such as substrate adherence, dye concentration, and culture conditions, have been optimized for measuring acutely isolated neurons as well as neuronal cell lines, as will be known to the skilled artisan. NAEs influence intracellular Ca2+ homeostasis. Next, studies were conducted using primary cultures of hippocampal neurons to determine the effects of NAEs on intracellular Ca^2+ signaling. In these studies, the influence of a bath-based application of NAE 16:0 on intracellular Ca^2+ signaling of primary hippocampal neurons was analyzed. Hippocampal neurons like most other CNS neurons express RyR isoform 2. Some neurons also express RyR3 and RyR1 is found predominantly in glial cells.
FIGS. 6A to 6E demonsatrate the effect of NAEs on primary isolated and cultured hippocampal neurons were exposed to 100 μM L-Glutamate. FIG. 6A show the DIC image of a neuron and the fluorescence of the calcium indicator dye fluo-3 in the same cell at resting levels (FIG. 6B) and after L-Glutamate stimulation (FIG. 6C; scale bar: 25 μm). […] When the hippocampal neurons were stimulated with L-glutamate, this triggers an influx of extracellular Ca^2+ and a prolonged release of Ca^2+ from intracellular stores (FIG. 6D). […]

[3] = tested on: ovariectomized (OVX) rats; test: Middle cerebral artery occlusion, cerebral ischemia-reperfusion injury; type: in vivo
Akt = details: primary hippocampal neurons, 100 μM, 60 min, total Akt unchanged
Method: Western Blot Analysis. Cells may be lysed in lysis buffer (50 mM Tris (pH 7.4), 150 mM NaCl, 10% glycerol, 1 mM EGTA, 1 mM Na3VO4, 5 μM ZnCl2, 100 mM NaF, 1% Triton X-100, 10 μg/ml aprotinin, 1 μg/ml leupeptin, and 1 mM PMSF) and snap frozen in liquid nitrogen. Following homogenization, by trituration of the cells through a 22 Ga needle, and centrifugation at 100,000×g for 15 min at 4° C., resulting supernatants (lysates) are normalized for protein content (Lowry Assay, Biorad DC Protein Assay Kit). 25 mg of protein from each sample will then be separated on a 10% polyacrylamide gel (SDS/PAGE) followed by transfer onto PVDF membranes (0.22 mm pore size, Biorad, Hercules, Calif.). The membranes are then blocked overnight with 3% BSA (Fraction V; Sigma) or in Tris-buffered saline containing 0.2% Tween-20 (TBS-T) and probed with the appropriate antibody. […] For Akt phosphorylation, rabbit anti-phosphoAkt (Ser473) or rabbit anti-phosphoAkt(Thr308) (Cell Signaling Technology); for Akt protein assessment, rabbit anti-Akt (New England Biolabs). Binding of the primary antibody to the membrane may be detected using a secondary antibody (either goat anti-rabbit or goat anti-mouse), conjugated to horseradish peroxidase (HRP; 1:40,000, Pierce, Rockford, Ill.) and visualized using enzyme-linked chemiluminescence (ECL; Amersham, Arlington Heights, Ill.). […]

T3 sequence (Q14571 whole entry): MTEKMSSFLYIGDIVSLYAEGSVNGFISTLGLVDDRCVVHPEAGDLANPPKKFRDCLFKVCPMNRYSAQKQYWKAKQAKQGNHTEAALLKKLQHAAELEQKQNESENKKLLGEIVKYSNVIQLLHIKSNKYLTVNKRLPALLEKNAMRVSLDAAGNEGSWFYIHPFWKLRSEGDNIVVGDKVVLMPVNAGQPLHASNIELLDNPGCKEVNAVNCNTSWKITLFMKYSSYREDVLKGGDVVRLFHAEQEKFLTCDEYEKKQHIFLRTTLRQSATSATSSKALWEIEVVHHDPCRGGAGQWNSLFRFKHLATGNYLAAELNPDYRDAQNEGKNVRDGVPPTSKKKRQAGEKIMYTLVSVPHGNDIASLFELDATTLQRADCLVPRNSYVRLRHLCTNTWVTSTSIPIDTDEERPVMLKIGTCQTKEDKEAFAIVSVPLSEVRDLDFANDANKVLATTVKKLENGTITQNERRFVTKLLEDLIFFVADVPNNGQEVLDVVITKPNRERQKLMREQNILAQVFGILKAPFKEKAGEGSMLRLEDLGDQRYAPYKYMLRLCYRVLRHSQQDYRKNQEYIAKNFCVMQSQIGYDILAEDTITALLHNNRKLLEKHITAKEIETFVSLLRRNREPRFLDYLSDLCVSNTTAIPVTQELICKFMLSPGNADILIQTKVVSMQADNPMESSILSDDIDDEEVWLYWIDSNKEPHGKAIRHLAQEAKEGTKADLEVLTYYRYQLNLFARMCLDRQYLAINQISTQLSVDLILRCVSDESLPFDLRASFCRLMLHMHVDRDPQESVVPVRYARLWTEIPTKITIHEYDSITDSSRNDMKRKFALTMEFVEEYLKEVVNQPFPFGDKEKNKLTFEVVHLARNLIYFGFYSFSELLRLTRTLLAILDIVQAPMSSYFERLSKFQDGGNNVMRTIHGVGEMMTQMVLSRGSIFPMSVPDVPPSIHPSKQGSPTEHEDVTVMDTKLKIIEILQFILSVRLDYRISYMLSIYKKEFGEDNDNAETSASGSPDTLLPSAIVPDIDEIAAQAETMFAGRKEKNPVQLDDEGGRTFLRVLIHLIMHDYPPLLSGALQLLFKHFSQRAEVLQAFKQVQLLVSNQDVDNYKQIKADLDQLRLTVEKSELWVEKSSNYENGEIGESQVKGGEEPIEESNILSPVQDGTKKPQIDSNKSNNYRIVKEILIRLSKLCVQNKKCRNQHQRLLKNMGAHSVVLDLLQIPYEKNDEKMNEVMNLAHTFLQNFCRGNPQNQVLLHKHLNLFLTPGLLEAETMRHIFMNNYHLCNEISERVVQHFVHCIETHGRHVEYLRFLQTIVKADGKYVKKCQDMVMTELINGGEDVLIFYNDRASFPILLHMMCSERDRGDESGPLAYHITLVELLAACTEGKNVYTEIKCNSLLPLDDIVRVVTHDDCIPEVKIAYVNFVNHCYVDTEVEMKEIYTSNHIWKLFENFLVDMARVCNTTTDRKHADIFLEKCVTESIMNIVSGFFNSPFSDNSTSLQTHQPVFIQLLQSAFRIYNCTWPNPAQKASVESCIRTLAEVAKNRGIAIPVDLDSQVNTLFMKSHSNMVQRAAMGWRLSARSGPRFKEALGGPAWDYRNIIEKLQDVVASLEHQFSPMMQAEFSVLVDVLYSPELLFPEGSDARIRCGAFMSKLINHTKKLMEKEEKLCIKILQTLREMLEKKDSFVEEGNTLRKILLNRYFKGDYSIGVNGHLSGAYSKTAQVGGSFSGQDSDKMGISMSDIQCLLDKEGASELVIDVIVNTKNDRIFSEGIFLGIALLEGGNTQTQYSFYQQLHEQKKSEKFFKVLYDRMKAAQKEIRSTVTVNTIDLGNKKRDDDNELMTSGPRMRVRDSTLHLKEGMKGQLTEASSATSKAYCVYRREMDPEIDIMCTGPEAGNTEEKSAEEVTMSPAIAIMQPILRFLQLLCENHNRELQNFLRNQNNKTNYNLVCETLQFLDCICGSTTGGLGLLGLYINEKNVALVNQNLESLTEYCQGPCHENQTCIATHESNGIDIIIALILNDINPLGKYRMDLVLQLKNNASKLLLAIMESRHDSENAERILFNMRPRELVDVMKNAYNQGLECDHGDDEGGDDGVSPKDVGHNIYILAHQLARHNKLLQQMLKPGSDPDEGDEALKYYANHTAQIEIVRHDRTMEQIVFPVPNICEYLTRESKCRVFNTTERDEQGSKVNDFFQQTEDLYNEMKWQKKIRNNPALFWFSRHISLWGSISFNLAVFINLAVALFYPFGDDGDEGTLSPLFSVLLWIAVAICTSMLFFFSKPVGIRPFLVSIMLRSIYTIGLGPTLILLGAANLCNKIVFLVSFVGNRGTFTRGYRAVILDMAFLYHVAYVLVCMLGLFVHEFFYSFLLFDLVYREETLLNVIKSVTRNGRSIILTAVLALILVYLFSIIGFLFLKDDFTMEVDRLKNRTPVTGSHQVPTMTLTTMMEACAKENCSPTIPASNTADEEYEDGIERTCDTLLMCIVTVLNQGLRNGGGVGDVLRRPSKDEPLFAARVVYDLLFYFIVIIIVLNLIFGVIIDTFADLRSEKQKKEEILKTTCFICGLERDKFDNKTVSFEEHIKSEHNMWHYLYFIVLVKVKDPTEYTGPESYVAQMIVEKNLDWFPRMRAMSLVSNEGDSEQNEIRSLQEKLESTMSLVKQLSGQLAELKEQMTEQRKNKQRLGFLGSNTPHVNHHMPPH

Compound: CCCCCCCCCCCC(=O)NCCO [NAE 12:0]
decrease of RyR type II activity (type 2 RyR; 500 nM, pCa 6.5, n=3, FIG. 5): 64%
change of single channel conductance and amplitude (type 2 RyR; RyR 2): Neither NAE 12:0 nor NAE 18:2 changed
increase of RyR type I activity (RyR type I; 500 nM, pCa 6, n=3, FIG. 5): 42%
change of single channel conductance and amplitude (RyR type I; RyR 1): Neither NAE 12:0 nor NAE 18:2 changed
protection from L-glutamate toxicity (HT22 neurons): dose-dependently protects
effect of NAE alone on neuronal viability (HT22 neurons; HT-22 cells, even at high concentrations, no L-glutamate): no effect
number of dead cells after L-glutamate insult (HT22 neurons; in the presence of the NAE): significantly reduced

block of channel activity (type 2 RyR; ruthenium red 20 μM): blocked
Compound: N.N.N.N.N.N.N.N.N.N.N.N.N.N.[Cl-].[Cl-].[Cl-].[Cl-].[Cl-].[Cl-].[O-2].[O-2].[Ru+3].[Ru+3].[Ru+4] [ruthenium red, reference compound]

Compound: O=P(O)(O)O[C@@H]1[C@H](O)[C@H](O)[C@@H](OP(=O)(O)O)[C@H](OP(=O)(O)O)[C@H]1O [IP3, inositol 1,4,5-trisphosphate]
cytosolic IP3 concentration that initiates channel activity [1]: ≥ 10 nM
EC50 ([1]; native channel, data not shown, read-out: half maximal activation, dependence on cytosolic IP3 concentration): 64 nM
EC50 (type 1 IP3R): 500 nM
EC50 (recombinant type 2 IP3R): 58 nM

Compound: C[C@]12CC[C@@H]3c4ccc(O)cc4CC[C@H]3[C@@H]1CC[C@@H]2O [17β-estradiol]
protection (rats and mice): > 50%

effect on lack of Ca2+ inhibition of the channel ([1]; excess amounts, preliminary experiments): did not change this behavior
Compound: calmodulin

block of channel activity ([1]; heparin 50 μg/ml): blocked
Compound: heparin

Compound: CC(=O)[C@H]1CC[C@H]2[C@@H]3CCC4=CC(=O)CC[C@]4(C)[C@H]3CC[C@]12C [progesterone]
phosphothreonine immunoreactivity on the IP3R (IP3R): increase

Compound: CCCCCCCCCCCCCCCC(=O)NCCO [NAE 16:0]
channel open frequency (type 2 RyR; 0.1 μM): reduced significantly
channel open probability (type 2 RyR; 0.1 μM): reduction
dwell time (type 2 RyR; 0.1 μM): reduced significantly
channel activity at higher concentrations (type 2 RyR; higher, micromolar concentrations, FIG. 4): almost complete block
single channel amplitude (not affected) (type 2 RyR; in presence of NAE 16:0): 3.9±0.1 pA
single channel conductance (not affected) (type 2 RyR; in presence of NAE 16:0): 110±8 pS
RyR2 channel activity (type 2 RyR; pCa 6, n=3, FIG. 4): dose-dependently decreased
amplitude of Ca2+ transients [2]: significantly decreased
duration of Ca2+ transients [2]: significantly decreased
effect of NAE alone on neuronal viability (HT22 neurons): no effect
potency in neuroprotection, comparison (HT22 neurons; FIG. 10 vs FIG. 9): higher potency in neuroprotection than NAE 12:0
protection of cerebral cortex and basal ganglia (infarct volume, TTC) ([3]; 10 mg/kg sc, 1 hr MCAO, 24 hr reperfusion, N=7/group, P<0.05 vs OVX): protected
protection of CNS tissue from MCA occlusion-induced ischemic damage ([3]; acute (sc 6 h prior and immediately before MCAO, 10 mg/kg) and chronic (1 day prior) regimen): effectively protected
phosphorylated/active Akt (Akt): significant increase
